Measured values from patent US20120035187A1 (priority 2009, published 2012).
Marks after values point to notes of the source that are not given here.

Assays:
Type in all cases: in vivo, hamster
[1] = Body weight of hamsters with cerebellar ataxia during administration; settings: compared between groups administered with PBS, NK-4 and IGF-1
[2] = test system: hamsters with cerebellar ataxia; experiment: Histological evaluation of cerebellum of hamsters with cerebellar ataxia; settings: 10-weeks of age, 25 μg/kg body weight
Excerpt: (§1) Since NK-4 was confirmed to have a neurodegenerative inhibitory action in Experiment 1, hamsters with cerebellar ataxia (cerebellar ataxia is called “cerebellar A” and hamsters with cerebellar ataxia are called “hamsters with cerebellar A”, hereinafter) as a suitable model for human neurodegenerative diseases (e.g., spinal cerebellar degeneration) were subjected to examine the influence of NK-4 administration on their behaviors and brain tissues. Twenty-five hamsters with natural mutation (Nna1 inhibition), which are known to lose Purkinje's cells after three-weeks of age and then induce a spontaneous onset of kinetic motor ataxia after seven-weeks of age (see Akita K. et al., “J. Neurogenetics”, Vol. 21, pp. 19-29, 2007), had been fed at Hayashibara Biochemical Laboratories., Inc., Okayama, Japan, were randomly allocated to the test groups 1 to 5, five heads in each group, as shown in Table 2. Prior to the onset of cerebellar A (at three-weeks of age), PBS was started to administer to the hamsters in the test group 1 at a dose of 10 ml/kg/day. Prior to the onset of cerebellar A (at three-weeks of age), NK-4 was started to be administered to the hamsters in the test groups 2 to 4 at a daily dose of 20 μg/kg, 100 μg/kg or 500 μg/kg. “IGF-1, human, a product name of insulin-like growth factor, commercialized by Assaypro LLC, MO, USA. These administered ingredients were intraperitoneally administered daily to hamsters once a day up to 10-weeks of age. The degree of symptom of cerebellar A and the improvement effect on the symptom by NK-4 were evaluated with an index of improvement in motor coordination of hamsters by conducting once a week the later described rotarod test and the slant tolerance test. At the age of 10-weeks, the hamsters were subjected to counting the falling down frequency and extracted their brains, which were then histologically evaluated. In parallel, the concentration of glutamic acid in the bloods and cerebrospinal fluids (CSF) of the hamsters was assayed. As a test group 6, five normal hamsters, with the same age as the hamsters with cerebellar A used in the test groups 1 to 5, were provided and tested similarly as the hamsters with cerebellar A in such a manner of intraperitoneally administering PBS to them at a dose of 10 ml/kg/day once a day up to 10-weeks of age.
Hamsters, 10-weeks of age, after completion of test on coordinated movement such as a confirmation of falling down frequency were intraperitoneally received 50 mg/kg pentobarbital, bled from their postcavas to let them die, and extracted their cerebra and cerebella, followed by fixing them with a 10% by volume of formalin solution. The resulting cerebra and cerebella were photographed with a digital camera apart from a prescribed high position and measured diameters in sagittal and horizontal directions for each photograph. The volumes of cerebra and cerebella were respectively determined by calculating with the formula, (length of sagittal direction)^2×(length of horizontal direction)×0.5; and the data from five heads in each group were averaged. The hamsters with cerebella A used in this experiment are known to reduce cell density of Purkinje's cells and granular cells. Cerebellar slices, which had been cut out in sagittal direction, were stained with hematoxylin-eosin stain, and microscopically observed to count the total number of Purkinje's cells within a Purkinje's cell layer ([…] I to X) and the number of granular cells per unit area, and to confirm subjects in which demyelination was observed within their cerebellar white matters. The results are in Table 5 in parallel.

[3] = test system: hamsters with cerebellar ataxia; experiment: Rotarod test in hamsters with cerebellar ataxia; settings: for Delayed days until the onset of cerebellar ataxia in hamster: 25 μg/kg body weight; for time (sec) endured until falling from rotarod apparatus: cerebellar ataxia hamsters, 25 μg/kg body weight i.p. once a day
Excerpt: as §1
As an index for coordinated movement, it was used a duration time of hamster's movement to staying on a rotarod by locomotion in synchronization with the turn of the rotarod; placing a hamster on an apparatus with a rotarod (having a diameter of 60 mm, prepared by Hayashibara Biochemical Laboratories, Inc., Okayama, Japan), turning at a constant rate of six rpm, and measuring the time until the hamster falls down from the rotarod (see Fernandez et al., “Proc. Natl. Acad. Sci. USA”, Vol. 95, pp. 1253-1258, 1998). The test was repeated six times for each hamster, where five-times of tests starting from the initiation of the test were made as a preliminary examination, and the time until each hamster fell down from the rotarod (called “falling time”, hereinafter) was measured, followed by averaging the falling times for each group consisting of five heads. The falling time was measured until 180 seconds. Based on the results, the relationship between the age and the falling time for each hamster with cerebellar A (test group 1) administered with PBS was graphed. […]
Similarly as in Experiment 2, 130 hamsters with cerebellar ataxia, born within the same week and 3-weeks of age, were randomly divided into 13 groups, consisting of 10 hamsters, respectively. […]

[4] = test system: hamsters with cerebellar ataxia; experiment: Concentration of glutamic acid in cerebrospinal fluid (CSF); settings: 10-weeks of age, 25 μg/kg body weight
Excerpt: as §1
The content of glutamic acid, which is used for synthesizing gamma-amino butyric acid (GABA) as a main excitatory neurotransmitter and inhibitory neurotransmitter that regulate higher-order functions such as memory/learning in mammalian central nervous system, was assayed. In harvesting the brains from the above hamsters, they were blooded from their postcavas, followed by collecting CSF for use in the later described assay for glutamic acid concentration. […]

[5] = test system: hamsters with cerebellar ataxia; experiment: Slant tolerance test in hamsters with cerebellar ataxia; settings: cerebellar ataxia hamsters, 25 μg/kg body weight i.p. once a day
Excerpt: as §1
Hamsters were placed on a slope-angle-variable-board while keeping their heads upward, followed by determining the angle for allowing the hamsters to keep staying thereupon for five seconds for use as an endurable-slant-slope-angle test (see Rivlin et al., “J. Neurosurg.”, Vol. 47, pp. 577-581, […]). The initial slope angle was set to 25 degrees and increased by 5 degrees step by step. When a tested hamster in a static condition fell down within five seconds, the slope angle was decreased by one degree step by step, followed by judging the angle that allows the hamster to keep static staying for five seconds, measuring the tolerable slant-slope-angle, and averaging the data for five heads in each group.
(§2) Similarly as in Experiment 2, 130 hamsters with cerebellar ataxia, born within the same week and 3-weeks of age, were randomly divided into 13 groups, consisting of 10 hamsters, respectively. […] The hamsters (10 heads) in the remaining one group were intraperitoneally administered from their age of 3- to 10-weeks with a sterilized 10% maltose solution (pyrogen-free) in an amount of 0.5 ml/hamster (control) once a day for 56 days At the next day after the end of the administration, body weight of each hamster was weighed, followed by performing rotarod test, slope endurance test, and counting of falling down frequency. The types of compounds applied to each group and the results are in Table 25.

[6] = test system: hamsters with cerebellar ataxia; experiment: Falling down frequency of hamsters with cerebellar ataxia; settings: cerebellar ataxia hamsters, 10-weeks of age; 25 μg/kg body weight i.p. once a day
Excerpt: as §1
Hamsters, 10-weeks of age, were respectively housed in a breeding cage. Their falling down frequencies within one minute were counted under a macroscopic observation and the data from five heads in each group were averaged. For reference, the hamsters with cerebellar A used in this experiment are known to increase their falling down frequencies after nine weeks of age.
as §2

IGF-1: insulin-like growth factor, human, commercialized by Assaypro LLC
body weight of hamsters with cerebellar A, weighed once every week up to 10-weeks of age [1]: no significant difference
Cerebellar volume (mm^3) ([2]; cerebellar ataxia hamsters): 77.6 ± 6.1* mm^3
Number of Purkinje cells (cells) ([2]; cerebellar ataxia hamsters): 71 ± 16 cells
Number of granular cells (cells/20000 μm^2) ([2]; cerebellar ataxia hamsters): 371 ± 11 cells/20000 μm^2
Number of subject (head) with apparent demyelination in cerebellar white matter ([2]; five heads per group): 3 head
Delayed days until the onset of cerebellar ataxia in hamster ([3]; 5-Weeks): 1 days
Delayed days until the onset of cerebellar ataxia in hamster ([3]; 6-Weeks): 8 days
Delayed days until the onset of cerebellar ataxia in hamster ([3]; 7-Weeks): 1 days
Delayed days until the onset of cerebellar ataxia in hamster ([3]; 8-Weeks): 1 days
Delayed days until the onset of cerebellar ataxia in hamster ([3]; 9-Weeks): 0 days
Delayed days until the onset of cerebellar ataxia in hamster ([3]; 10-Weeks): 0 days
time (sec) endured until falling from rotarod apparatus ([3]; 4-Weeks): 126 ± 11 s
time (sec) endured until falling from rotarod apparatus ([3]; 5-Weeks): 63 ± 13 s
time (sec) endured until falling from rotarod apparatus ([3]; 6-Weeks): 43 ± 11 s
time (sec) endured until falling from rotarod apparatus ([3]; 7-Weeks): 21 ± 5 s
time (sec) endured until falling from rotarod apparatus ([3]; 8-Weeks): 9 ± 2 s
time (sec) endured until falling from rotarod apparatus ([3]; 9-Weeks): 6 ± 1 s
time (sec) endured until falling from rotarod apparatus ([3]; 10-Weeks): 6 ± 1 s
Concentration of glutamic acid in cerebrospinal fluid [4]: 7.9 ± 2.0 µM
endurable-slant-slope-angle (degree) ([5]; 4-Weeks): 44.4 ± 0.2 degree
endurable-slant-slope-angle (degree) ([5]; 5-Weeks): 41.8 ± 0.6 degree
endurable-slant-slope-angle (degree) ([5]; 6-Weeks): 40.2 ± 0.7 degree
endurable-slant-slope-angle (degree) ([5]; 7-Weeks): 41.6 ± 0.8 degree
endurable-slant-slope-angle (degree) ([5]; 8-Weeks): 35.6 ± 0.2 degree
endurable-slant-slope-angle (degree) ([5]; 9-Weeks): 35.2 ± 0.6 degree
endurable-slant-slope-angle (degree) ([5]; 10-Weeks): 33.0 ± 0.9 degree
Falling down frequency (frequency/min) [6]: 11.4 ± 0.4 frequency/min
